Earlier results on one molecule are cited in paper PMC6286156 (Cell Calcium, 2018).

The test system of one series is Ebola. The following applies: mouse, in vivo; cited from earlier work.
The subject of series [1] is NAADP-evoked Ca^2+ signals. The following applies: cited from earlier work.

For the molecule `COc1ccc2cc1Oc1ccc(cc1)C[C@H]1c3cc(c(OC)cc3CCN1C)Oc1c(OC)c(OC)cc3c1[C@H](C2)N(C)CC3` [tetrandrine], the Survival entry with Ebola was “improved survival”. The “Concentration range acting as TPC pore blocker (in words)” value in series [1] is listed as “sub-micromolar range”.
